Test systems include NCI-H460 lung; LOX IMVI melanoma; COLO 205 colon; M14 melanoma; CAKI-1 renal; HT29 colon; MALME-3M melanoma; MCF7 breast; EKVX NSCLC; HCC-2998 colon.
Holding throughout (assay): NCI anticancer screen, dose series, 48 h

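Protocol summary: plate cells (96-well), add compound at 5 concentrations, incubate 48 h, interpolate endpoints linearly. GI50 marks 50% less growth. The concentration for full growth arrest is given as TGI.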

Regarding `CC1=C2[C@@H](CC1)[C@]1(C)O[C@@](C(C)C)(C[C@H]1OC(=O)CO)[C@H]2OC(=O)CCCc1ccccc1`, the GI50 with NCI-H460 lung was 9.1 µM; in the assay with LOX IMVI melanoma, 5.88 µM; with COLO 205 colon it was 6.52 µM; with M14 melanoma, 7.78 µM; in the assay with CAKI-1 renal, 4.24 µM; in the assay on HT29 colon, 10.8 µM. The GI50 is 6.52 µM in the assay on MALME-3M melanoma, 13.2 µM in the assay on MCF7 breast, 15 µM with EKVX NSCLC and 12 µM with HCC-2998 colon. In addition, the TGI with NCI-H460 lung worked out at 22.9 µM; in the assay on LOX IMVI melanoma, 18.5 µM; in the assay with COLO 205 colon it was 21.8 µM; in the assay with M14 melanoma, 21.8 µM; in the assay with CAKI-1 renal, 16.7 µM; in the assay with HT29 colon, 26.1 µM. In addition, the TGI with MALME-3M melanoma was found to be 19.8 µM; in the assay on MCF7 breast, 29.7 µM; in the assay on EKVX NSCLC it was 30.8 µM; in the assay on HCC-2998 colon it was 24.6 µM.

For the compound `CC(C)=Cc1cccc2[nH]c(O)c(N=Nc3ccc(S(N)(=O)=O)cc3)c12`, the GI50 in the assay with NCI-H460 lung was 1.32 µM; with LOX IMVI melanoma, 2.67 µM; in the assay on COLO 205 colon it was more than 9.93 µM; in the assay on M14 melanoma, more than 25 µM; with CAKI-1 renal, 1.69 µM; with HT29 colon it was 3.36 µM. Also, the GI50 was more than 25 µM in the assay on MALME-3M melanoma, 1.04 µM in the assay on MCF7 breast, more than 25 µM in the assay on EKVX NSCLC and more than 25 µM in the assay with HCC-2998 colon. The TGI in the assay on NCI-H460 lung is more than 20.5 µM; in the assay on LOX IMVI melanoma it was more than 25 µM; with COLO 205 colon, more than 25 µM; in the assay on M14 melanoma, more than 25 µM; with CAKI-1 renal, more than 25 µM; in the assay with HT29 colon it was more than 25 µM. Also, the TGI in the assay with MALME-3M melanoma, with MCF7 breast, with EKVX NSCLC and with HCC-2998 colon was more than 25 µM in each case.

Take `Cc1cc(=O)oc2cc3oc(N(C)c4ccccc4)nc(=O)c3cc12`: the TGI in the assay on NCI-H460 lung, with LOX IMVI melanoma, in the assay with COLO 205 colon, in the assay with M14 melanoma, in the assay with CAKI-1 renal and in the assay with HT29 colon was more than 100 µM throughout. Besides, the TGI with MALME-3M melanoma, in the assay on MCF7 breast, in the assay with EKVX NSCLC and with HCC-2998 colon was more than 100 µM each time.

On to `Cc1ccc2[nH]c(C(=O)NN3C(=O)C(C)SC34CCC(C)CC4)c(-c3ccccc3)c2c1` (stereo not given), for which the GI50 in the assay on NCI-H460 lung is 15.7 µM; in the assay with LOX IMVI melanoma it was 18 µM; with COLO 205 colon, 17.8 µM; with M14 melanoma it was 18.2 µM; with CAKI-1 renal, 15.6 µM; with HT29 colon, 13.1 µM. Also, the GI50 with MALME-3M melanoma was 17 µM; with MCF7 breast it was 17.5 µM; in the assay on EKVX NSCLC, 19.6 µM; in the assay with HCC-2998 colon, 16.6 µM. The TGI came out at 43.9 µM in the assay with NCI-H460 lung; 34.8 µM in the assay on LOX IMVI melanoma; 41.1 µM in the assay on COLO 205 colon; 39 µM in the assay on M14 melanoma; 38 µM in the assay with CAKI-1 renal; 29.3 µM in the assay on HT29 colon. The TGI with MALME-3M melanoma was 33.4 µM; in the assay on MCF7 breast, more than 100 µM; with EKVX NSCLC it was 56.1 µM; with HCC-2998 colon it was 31.7 µM.

With `COc1cc2c(c(OC)c1OC)-c1c(c3ccc([N+](=O)[O-])cc3c(=O)n1CCCBr)C2=O`, the GI50 was 8.53 µM in the assay with NCI-H460 lung; 31.9 µM in the assay on LOX IMVI melanoma; more than 100 µM in the assay with COLO 205 colon; 21 µM with M14 melanoma; 13.4 µM with CAKI-1 renal; more than 100 µM in the assay on HT29 colon. For the same compound, the GI50 in the assay with MALME-3M melanoma was 11.4 µM; in the assay with MCF7 breast it was 0.0551 µM; in the assay with EKVX NSCLC, more than 100 µM; in the assay with HCC-2998 colon it was 50.4 µM. The TGI in the assay with NCI-H460 lung is more than 100 µM; with LOX IMVI melanoma, more than 100 µM; in the assay on COLO 205 colon, more than 100 µM; in the assay on M14 melanoma, 59.1 µM; with CAKI-1 renal, 61.3 µM; with HT29 colon it was more than 100 µM. Moreover, the TGI is 47.6 µM in the assay with MALME-3M melanoma, 0.439 µM in the assay on MCF7 breast, more than 100 µM in the assay with EKVX NSCLC and more than 100 µM with HCC-2998 colon.

Consider `Fc1ccc(-c2ncn(CCCN3CCOCC3)c2-c2ccncc2)cc1`, for which the GI50 with NCI-H460 lung, in the assay on LOX IMVI melanoma, with COLO 205 colon, in the assay with M14 melanoma, with CAKI-1 renal and in the assay with HT29 colon was more than 25 µM in each case. The GI50 in the assay on MALME-3M melanoma, in the assay on MCF7 breast, in the assay with EKVX NSCLC and in the assay on HCC-2998 colon was more than 25 µM in each case. Besides, the TGI in the assay on NCI-H460 lung, in the assay with LOX IMVI melanoma, in the assay with COLO 205 colon, with M14 melanoma, in the assay on CAKI-1 renal and in the assay on HT29 colon was more than 25 µM in each case. Also, the TGI in the assay on MALME-3M melanoma, in the assay on MCF7 breast, in the assay on EKVX NSCLC and in the assay on HCC-2998 colon was more than 25 µM throughout.

Take `CCCS(=O)(=O)Nc1cccc(Nc2ncnc3cc(NC(=O)CCl)ccc23)c1Cl`: the GI50 is 3.67 µM with NCI-H460 lung; 0.892 µM in the assay on LOX IMVI melanoma; 1.2 µM in the assay on COLO 205 colon; 1.11 µM with M14 melanoma; 2.32 µM in the assay on CAKI-1 renal; 1.1 µM in the assay with HT29 colon. Besides, the GI50 in the assay with MALME-3M melanoma is 0.674 µM; in the assay on MCF7 breast, 1.05 µM; in the assay with EKVX NSCLC, 3.72 µM; in the assay with HCC-2998 colon, 5.09 µM. The TGI with NCI-H460 lung amounted to 8.06 µM; in the assay with LOX IMVI melanoma, 3.9 µM; with COLO 205 colon, 5.51 µM; in the assay with M14 melanoma, 5.16 µM; in the assay with CAKI-1 renal, 5.95 µM; in the assay on HT29 colon it was 4.74 µM. Besides, the TGI came to 4.28 µM with MALME-3M melanoma, 5.92 µM with MCF7 breast, 12.3 µM in the assay with EKVX NSCLC and 10.6 µM in the assay with HCC-2998 colon.

(Values after PubChem BioAssay (NCI).)
